Measured values published in ChEMBL document CHEMBL1201862, “PubChem BioAssay data set” (2004).
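Results reflect a 48-hour exposure of cells in 96-well plates to compound at five concentrations. GI50 = concentration required for 50% inhibition of growth.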 Active and inactive are the calls of the source. Cut-off read from the data, not from the text of the source: active = GI50 up to about 1.1 µM and inactive = higher.

How the values were obtained:
Assay in all cases: NCI anticancer screen, dose series, 48 h
NCI-H522 = system: NCI-H522
SN12C = system: SN12C
COLO 205 = system: COLO 205
SK-OV-3 = system: SK-OV-3
CCRF-CEM = system: CCRF-CEM
SF-268 = system: SF-268
ACHN = system: ACHN
SW-620 = system: SW-620
UO-31 = system: UO-31
DMS-114 = system: DMS-114
OVCAR-3 = system: OVCAR-3
NCI/ADR-RES = system: NCI/ADR-RES
DU-145 = system: DU-145
SF-295 = system: SF-295
MDA-MB-435 = system: MDA-MB-435
OVCAR-5 = system: OVCAR-5
CAKI-1 = system: CAKI-1
MDA-MB-231 = system: MDA-MB-231
LOX IMVI = system: LOX IMVI
K562 = system: K562

Measured: GI50

O=C1NC2C(=CC(O)C(O)C2O)c2cc3c(cc21)OCO3 (stereo not given)
active: NCI-H522 244 nM | SN12C 301 nM | COLO 205 200 nM | SK-OV-3 619 nM | CCRF-CEM 206 nM | SF-268 171 nM | ACHN 144 nM | SW-620 335 nM | UO-31 564 nM | DMS-114 430 nM | OVCAR-3 372 nM | NCI/ADR-RES 621 nM | DU-145 56 nM | SF-295 582 nM | MDA-MB-435 95.1 nM | OVCAR-5 940 nM | CAKI-1 280 nM | MDA-MB-231 48.6 nM | LOX IMVI 308 nM | K562 340 nM
